Data reported in patent publication US12527870B2, “Peptide hydrogels for delivery of immunosuppressive drugs and uses thereof” (THE JOHNS HOPKINS UNIVERSITY, priority 2018, dated 2026).
Counter-ions that a name gives are not always drawn.

Key:
Type in all cases: physicochemical
[1] = Ex vivo drug release from peptide hydrogel into buffer
Text: FIGS. 1A-1D: Release profiles of tofacitinib from peptide hydrogels. (FIG. 1A) Sustained release profile of tofacitinib free base vs burst release of tofacitinib citrate salt from MAX8 peptide hydrogel at early time points. (FIG. 1B) Release profiles of tofacitinib free base and citrate at longer time duration. (FIG. 1C) Variation of release profiles of tofacitinib free base based on the initial amount of drug loading. (FIG. 1D) Release profiles of tofacitinib free base from MAX1 and HLT2 peptide hydrogels. Concentration of tofacitinib free base was 16 mM. In each case, release of the drug was monitored from the hydrogel into an infinite sink (25 mM HEPES, 150 mM NaCl, pH 7.4) at 37° C. Lines are included for visual guidance.
A MAX8 peptide stock solution was prepared in glass vials by dissolving 1 mg of peptide in 50 μL of chilled sterile water. Tofacitinib free base and tofacitinib citrate (purchased from LC Laboratories, Woburn, MA) stock solutions were prepared in spectrophotometric grade DMSO with final concentrations of 100 μg/μL and 160 μg/μL, respectively. Concentration of the stock solution was determined in such a way that would maintain equal ratio of DMSO to HEPES buffered saline (HBS) (v/v) while loading equimolar concentration of tofacitinib free base and citrate into the hydrogel. Required volume of drug stock solution was added into a chilled solution of HBS (2X HBS, 50 mM HEPES, 300 mM NaCl, pH 7.4) to make the final volume as 50 μL. At this point, care was taken to avoid mixing before the peptide stock solution had been transferred to the resulting suspension. Peptide solution was added and samples were then mixed to initiate hydrogelation, resulting in a 1.0 wt % gel of a final total volume of 100 μL containing required amount of loaded drug. Tofacitinib free base was loaded to the final concentrations of 1.6, 3.2 and 16 mM. For tofacitinib citrate salt, only hydrogels with a final concentration of 16 mM loaded drug were considered for drug release studies. Samples were placed in an incubator at 37° C. for 24 hours. After 24 hours, 1 mL of 1X HBS (25 mM HEPES, 150 mM NaCl, pH 7.4) was added to the top of gel. At scheduled time points, the entire volume of buffer above the gel was removed and replaced with fresh buffer. Drug concentration was determined for each removed aliquot as a function of time by measuring absorbance at 290 nm in a UV-VIS spectrophotometer (Agilent 8453) with a standard curve constructed under similar conditions.

[2] = Crystallization of drug within peptide hydrogel (phase-contrast, confocal, polarized light microscopy)
Experimental: During hydrogel-mediated encapsulation, when used at a loading concentration of 16 mM, tofacitinib free base initially produced an opaque suspension that turned into a transparent hydrogel as the drug dissolved in the self-assembled peptide matrix at 37° C. during the first 2-3 hours. […] Approximately 10 μL of the hydrogel was then placed on a glass slide and covered with a cover slip. Phase-contrast microscopy (EVOS FL Cell Imaging System) and confocal microscopy (LSM 710) were used to characterize the drug aggregates suspended in the hydrogel matrix. Crystallinity of the aggregates was verified from polarized light microscopy at low and high magnification.
Shown in FIGS. 2A-2C are phase contrast images of tofacitinib free base encapsulated within MAX8 peptide hydrogel at the drug concentrations of 16 mM (FIG. 2A), 1.6 mM (FIG. 2B) and blank MAX8 peptide hydrogel (FIG. 2C). Shown in FIGS. 2D-2E are confocal microscopy-generated differential interference contrast images of tofacitinib free base microcrystals dispersed in MAX8 peptide gel network at a drug concentration of 16 mM.

[3] = Release profile from MAX8 hydrogel with varying DMSO volume ratio; settings: 16 mM, DMSO 2-30% by volume
Experimental: FIGS. 6A-6B: Release profile of tofacitinib from MAX8 hydrogel. (FIG. 6A) Cumulative release profiles of tofacitinib (free base) from MAX8 hydrogel containing different volume ratios of DMSO versus hydrogel. In each case, the tofacitinib stock solution was prepared in DMSO and an increasing volume of the DMSO stock was added while constituting the hydrogel. The total concentration of loaded tofacitinib was constant at 16 mM. Release profile of the drug was monitored from the hydrogel into buffer (25 mM HEPES, 150 mM NaCl, pH 7.4) at 37° C. (FIG. 6B) Release rate of tofacitinib from MAX8 hydrogel containing varying volumes of DMSO during the first 4 hours.
In each case, the tofacitinib stock solution was prepared in DMSO and an increasing volume of the DMSO stock was added while constituting the hydrogel. The total concentration of loaded tofacitinib was constant at 16 mM. The release profile of the drug was monitored from the hydrogel into buffer (25 mM HEPES, 150 mM NaCl, pH 7.4) at 37° C.

[4] = MAX8 hydrogel, 16 mM loading, HBS pH 7.4, 37° C.
[5] = MAX8 hydrogel, 16 mM loading, 37° C.

| period to show similar cumulative release (over 75%) ([1]; MAX8 hydrogel, 16 mM loading, crystallized state, HBS pH 7.4, 37° C.) | release profile from MAX8 hydrogel, free base vs citrate [1, 4] | release profile at lower loading compared to 16 mM ([1]; MAX8 hydrogel, 0.48, 1.6 and 3.2 mM loading) | drug released within the first 10 hours ([1]; MAX8 hydrogel, loading 0.48 to 3.2 mM, soluble (not crystallized) drug, into 25 mM HEPES, 150 mM NaCl, pH 7.4, 37° C.) | crystallization within HLT2 hydrogel ([2]; HLT2 hydrogel, 16 mM loading) | crystallization within MAX1 hydrogel ([2]; MAX1 hydrogel, 16 mM loading) | loading concentration needed for crystallization ([2]; MAX8 hydrogel) | crystallization within MAX8 hydrogel [2, 5] | time of in situ crystallization after dissolution ([2]; MAX8 hydrogel, 16 mM, 37° C., after the first 2-3 hours) | crystallization within MAX8 hydrogel below 16 mM ([2]; MAX8 hydrogel, loading concentration below 16 mM) | effect of decreasing the DMSO concentration on solubility [3] | SMILES |
| --- | --- | --- | --- | --- | --- | --- | --- | --- | --- | --- | --- |
| 6 days | slower, more sustained release | more rapid release | over 75% | crystallized | crystallized | above 3.2 mM | gradually crystallized in situ | ~20 h | no visible indication of crystallization | reduces the solubility | C[C@@H]1CCN(C(=O)CC#N)C[C@@H]1N(C)c1ncnc2[nH]ccc12 [tofacitinib free base, 3-((3R,4R)-4-methyl-3-(methyl (7H-pyrrolo[2,3-d]pyrimidin-4-yl)amino)piperidin-1-yl)-3-oxopropanenitrile] |
|  | released faster |  |  |  |  |  | did not crystallize |  |  |  | C[C@@H]1CCN(C(=O)CC#N)C[C@@H]1N(C)c1ncnc2[nH]ccc12 [tofacitinib citrate] |
